Laboratory results: ChEMBL document CHEMBL5338717, “Discovery of novel PDE4 inhibitors targeting the M-pocket from natural mangostanin with improved safety for the treatment of Inflammatory Bowel Diseases” (Eur J Med Chem, 2022)
Activity calls are given as the source filed them. The calls are words filed in the database; no cut-off is given here.

Tests used:
[1] = Metabolic stability in rat liver microsomes assessed as half life; assay type: ADME, Microsome
[2] = target: 3',5'-cyclic-AMP phosphodiesterase 4B (Homo sapiens, UniProt Q07343); experiment: Inhibition of recombinant PDE4B2 (152 to 487 residues) (unknown origin) expressed in Escherichia coli BL21 using [3H]cAMP as substrate incubated for 15 mins by liquid scintillation method
[3] = target: cGMP-specific 3',5'-cyclic phosphodiesterase (Homo sapiens, UniProt O76074); experiment: Inhibition of recombinant PDE5A1 (535 to 860 residues) (unknown origin) expressed in Escherichia coli BL21 using [3H]cGMP as substrate incubated for 15 mins by liquid scintillation method
[4] = target: High affinity 3',5'-cyclic-AMP phosphodiesterase 7A (Homo sapiens, UniProt Q13946); experiment: Inhibition of recombinant PDE7A1 (130 to 482 residues) (unknown origin) expressed in Escherichia coli BL21 using [3H]cAMP as substrate incubated for 15 mins by liquid scintillation method
[5] = target: High affinity cAMP-specific and IBMX-insensitive 3',5'-cyclic phosphodiesterase 8A (Homo sapiens, UniProt O60658); experiment: Inhibition of recombinant PDE8A1 (480 to 828 residues) (unknown origin) expressed in Escherichia coli BL21 using [3H]cAMP as substrate incubated for 15 mins by liquid scintillation method
[6] = Selectivity index, ratio of IC50 for inhibition of recombinant PDE4B2 (152 to 487 residues) (unknown origin) expressed in Escherichia coli BL21 to IC50 for inhibition of recombinant PDE4D2 (86 to 413 residues) (unknown origin) expressed in Escherichia coli BL21
[7] = Selectivity index, ratio of IC50 for inhibition of recombinant PDE1C (147 to 531 residues) (unknown origin) expressed in Escherichia coli BL21 to IC50 for inhibition of recombinant PDE4D2 (86 to 413 residues) (unknown origin) expressed in Escherichia coli BL21
[8] = Selectivity index, ratio of IC50 for inhibition of recombinant PDE3A (679 to 1087 residues) (unknown origin) expressed in Escherichia coli BL21 to IC50 for inhibition of recombinant PDE4D2 (86 to 413 residues) (unknown origin) expressed in Escherichia coli BL21
[9] = Selectivity index, ratio of IC50 for inhibition of recombinant PDE8A1 (480 to 828 residues) (unknown origin) expressed in Escherichia coli BL21 to IC50 for inhibition of recombinant PDE4D2 (86 to 413 residues) (unknown origin) expressed in Escherichia coli BL21
Cytochrome P450 2B6 = target: T1, Cytochrome P450 2B6 (Homo sapiens, UniProt P20813); experiment: Inhibition of human CYP2B6 in human hepatocytes; assay type: ADME, cell-based, Hepatocyte
T1 sequence (P20813 whole entry): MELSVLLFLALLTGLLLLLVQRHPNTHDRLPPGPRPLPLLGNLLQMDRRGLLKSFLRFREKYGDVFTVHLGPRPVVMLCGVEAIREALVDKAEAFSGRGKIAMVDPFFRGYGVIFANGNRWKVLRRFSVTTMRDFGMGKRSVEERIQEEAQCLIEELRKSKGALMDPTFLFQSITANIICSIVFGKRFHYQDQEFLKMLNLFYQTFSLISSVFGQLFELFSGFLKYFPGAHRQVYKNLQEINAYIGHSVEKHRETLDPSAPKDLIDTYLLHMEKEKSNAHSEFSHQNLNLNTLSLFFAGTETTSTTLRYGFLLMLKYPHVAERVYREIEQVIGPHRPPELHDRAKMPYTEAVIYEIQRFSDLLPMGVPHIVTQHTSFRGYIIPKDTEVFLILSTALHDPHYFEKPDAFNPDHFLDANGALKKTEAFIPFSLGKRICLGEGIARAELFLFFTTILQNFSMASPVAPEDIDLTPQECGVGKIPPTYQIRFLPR

[10] = Selectivity index, ratio of IC50 for inhibition of recombinant PDE9A2 (181 to 506 residues) (unknown origin) expressed in Escherichia coli BL21 to IC50 for inhibition of recombinant PDE4D2 (86 to 413 residues) (unknown origin) expressed in Escherichia coli BL21
[11] = target: Voltage-gated inwardly rectifying potassium channel KCNH2 (Homo sapiens, UniProt Q12809); experiment: Inhibition of human ERG; assay type: toxicity
Cytochrome P450 1A2 = target: T2, Cytochrome P450 1A2 (Homo sapiens, UniProt P05177); experiment: Inhibition of human CYP1A2 in human hepatocytes; assay type: ADME, cell-based, Hepatocyte
T2 sequence (P05177 whole entry): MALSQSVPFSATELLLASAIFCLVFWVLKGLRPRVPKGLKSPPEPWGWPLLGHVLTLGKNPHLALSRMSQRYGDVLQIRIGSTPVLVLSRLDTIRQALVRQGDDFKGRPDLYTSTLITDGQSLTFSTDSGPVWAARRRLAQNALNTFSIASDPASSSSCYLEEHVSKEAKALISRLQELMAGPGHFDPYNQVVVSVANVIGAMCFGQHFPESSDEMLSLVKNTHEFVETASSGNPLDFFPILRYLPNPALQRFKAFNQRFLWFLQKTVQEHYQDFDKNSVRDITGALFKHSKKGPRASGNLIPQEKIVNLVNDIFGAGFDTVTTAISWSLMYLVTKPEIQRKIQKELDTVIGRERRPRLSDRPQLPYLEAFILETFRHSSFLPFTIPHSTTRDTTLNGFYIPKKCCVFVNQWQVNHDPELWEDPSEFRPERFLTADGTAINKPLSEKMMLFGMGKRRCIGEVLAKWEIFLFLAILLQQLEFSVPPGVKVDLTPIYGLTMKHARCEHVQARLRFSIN

[12] = AUC(0 to 24 hrs) in Sprague-Dawley rat at 2.5 mg/kg, iv; assay type: ADME, organism-based; design: dose 2.5 mg/kg, route iv; conditions: in vivo
[13] = MRT(0 to 24 hrs) in Sprague-Dawley rat at 2.5 mg/kg, iv; assay type: ADME, organism-based; conditions: in vivo
[14] = Volume of distribution at steady state in Sprague-Dawley rat at 2.5 mg/kg, iv; assay type: ADME, organism-based; conditions: in vivo, read-out: Vdss
Mus musculus [15] = experiment: Anti-inflammatory bowel disease activity in DSS-induced inflammatory bowel disease C57BL/6 mouse model assessed as increase in colon length at 5 mg/kg, iv BID and measured upto 8 days; assay type: functional, organism-based; conditions: time <= 8.0 day
Mus musculus [16] = experiment: Anti-inflammatory bowel disease activity in DSS-induced inflammatory bowel disease C57BL/6 mouse model assessed as decrease in mucosal ulceration in colon at 5 mg/kg, iv BID and measured after 8 days by Haematoxylin and eosin staining based microscopy; assay type: functional, organism-based; conditions: time 8.0 day
Mus musculus [17] = experiment: Anti-inflammatory bowel disease activity in DSS-induced inflammatory bowel disease C57BL/6 mouse model assessed as decrease in loss of crypt architecture in colon at 5 mg/kg, iv BID and measured after 8 days by Haematoxylin and eosin staining based microscopy; assay type: functional, organism-based; conditions: time 8.0 day
Mus musculus [18] = experiment: Anti-inflammatory bowel disease activity in DSS-induced inflammatory bowel disease C57BL/6 mouse model assessed as increase in body weight at 5 mg/kg, iv BID and measured after 8 days […]; assay type: functional, organism-based; conditions: time 8.0 day
Mus musculus [19] = experiment: Anti-inflammatory bowel disease activity in DSS-induced inflammatory bowel disease C57BL/6 mouse model assessed as decrease in TNF-alpha mRNA expression level in colon at 5 mg/kg, iv BID and measured after 8 days by real-time PCR analysis; assay type: functional, organism-based; conditions: time 8.0 day

High affinity cAMP-specific and IBMX-insensitive 3',5'-cyclic phosphodiesterase 8A, sequence (O60658 whole entry, the tested form may be a part): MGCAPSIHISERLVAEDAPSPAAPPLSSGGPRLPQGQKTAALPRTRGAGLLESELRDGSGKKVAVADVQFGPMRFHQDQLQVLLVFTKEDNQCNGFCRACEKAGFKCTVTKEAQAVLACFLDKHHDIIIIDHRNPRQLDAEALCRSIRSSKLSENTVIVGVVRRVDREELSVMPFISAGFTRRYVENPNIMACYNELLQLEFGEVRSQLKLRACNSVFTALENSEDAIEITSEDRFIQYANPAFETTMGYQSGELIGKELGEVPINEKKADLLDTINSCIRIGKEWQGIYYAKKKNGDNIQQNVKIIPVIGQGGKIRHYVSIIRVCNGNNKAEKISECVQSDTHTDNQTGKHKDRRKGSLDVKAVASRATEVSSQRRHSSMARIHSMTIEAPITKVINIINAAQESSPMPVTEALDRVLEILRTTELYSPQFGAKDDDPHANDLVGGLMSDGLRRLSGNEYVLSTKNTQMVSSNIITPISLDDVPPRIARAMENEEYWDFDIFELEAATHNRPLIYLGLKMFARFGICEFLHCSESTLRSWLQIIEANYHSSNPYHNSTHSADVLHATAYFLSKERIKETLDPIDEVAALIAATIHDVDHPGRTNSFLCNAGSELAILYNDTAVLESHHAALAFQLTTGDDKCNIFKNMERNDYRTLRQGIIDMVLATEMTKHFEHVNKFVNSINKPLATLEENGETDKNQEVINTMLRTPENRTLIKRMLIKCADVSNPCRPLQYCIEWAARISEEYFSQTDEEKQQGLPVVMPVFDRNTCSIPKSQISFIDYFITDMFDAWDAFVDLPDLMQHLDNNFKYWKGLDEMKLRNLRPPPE
3',5'-cyclic-AMP phosphodiesterase 4B, sequence (Q07343 whole entry, the tested form may be a part): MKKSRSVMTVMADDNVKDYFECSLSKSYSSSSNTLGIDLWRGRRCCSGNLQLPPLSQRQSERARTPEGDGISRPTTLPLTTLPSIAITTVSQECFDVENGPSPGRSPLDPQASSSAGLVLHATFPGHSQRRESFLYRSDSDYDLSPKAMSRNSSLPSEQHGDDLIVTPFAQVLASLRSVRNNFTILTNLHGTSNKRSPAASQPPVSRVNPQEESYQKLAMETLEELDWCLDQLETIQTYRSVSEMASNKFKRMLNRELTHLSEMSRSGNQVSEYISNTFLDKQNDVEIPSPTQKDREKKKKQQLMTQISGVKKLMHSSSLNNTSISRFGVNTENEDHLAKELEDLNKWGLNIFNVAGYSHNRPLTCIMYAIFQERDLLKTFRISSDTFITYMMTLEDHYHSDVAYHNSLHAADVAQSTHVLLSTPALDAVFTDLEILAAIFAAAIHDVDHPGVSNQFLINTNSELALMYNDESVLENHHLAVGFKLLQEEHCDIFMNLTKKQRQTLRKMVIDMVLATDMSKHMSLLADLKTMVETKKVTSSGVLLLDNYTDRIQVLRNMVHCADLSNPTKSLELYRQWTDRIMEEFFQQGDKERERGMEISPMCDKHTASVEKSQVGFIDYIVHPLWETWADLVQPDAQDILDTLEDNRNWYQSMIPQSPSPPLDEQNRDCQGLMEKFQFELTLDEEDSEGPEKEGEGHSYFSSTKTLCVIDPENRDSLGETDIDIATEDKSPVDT
Voltage-gated inwardly rectifying potassium channel KCNH2, sequence (Q12809 whole entry): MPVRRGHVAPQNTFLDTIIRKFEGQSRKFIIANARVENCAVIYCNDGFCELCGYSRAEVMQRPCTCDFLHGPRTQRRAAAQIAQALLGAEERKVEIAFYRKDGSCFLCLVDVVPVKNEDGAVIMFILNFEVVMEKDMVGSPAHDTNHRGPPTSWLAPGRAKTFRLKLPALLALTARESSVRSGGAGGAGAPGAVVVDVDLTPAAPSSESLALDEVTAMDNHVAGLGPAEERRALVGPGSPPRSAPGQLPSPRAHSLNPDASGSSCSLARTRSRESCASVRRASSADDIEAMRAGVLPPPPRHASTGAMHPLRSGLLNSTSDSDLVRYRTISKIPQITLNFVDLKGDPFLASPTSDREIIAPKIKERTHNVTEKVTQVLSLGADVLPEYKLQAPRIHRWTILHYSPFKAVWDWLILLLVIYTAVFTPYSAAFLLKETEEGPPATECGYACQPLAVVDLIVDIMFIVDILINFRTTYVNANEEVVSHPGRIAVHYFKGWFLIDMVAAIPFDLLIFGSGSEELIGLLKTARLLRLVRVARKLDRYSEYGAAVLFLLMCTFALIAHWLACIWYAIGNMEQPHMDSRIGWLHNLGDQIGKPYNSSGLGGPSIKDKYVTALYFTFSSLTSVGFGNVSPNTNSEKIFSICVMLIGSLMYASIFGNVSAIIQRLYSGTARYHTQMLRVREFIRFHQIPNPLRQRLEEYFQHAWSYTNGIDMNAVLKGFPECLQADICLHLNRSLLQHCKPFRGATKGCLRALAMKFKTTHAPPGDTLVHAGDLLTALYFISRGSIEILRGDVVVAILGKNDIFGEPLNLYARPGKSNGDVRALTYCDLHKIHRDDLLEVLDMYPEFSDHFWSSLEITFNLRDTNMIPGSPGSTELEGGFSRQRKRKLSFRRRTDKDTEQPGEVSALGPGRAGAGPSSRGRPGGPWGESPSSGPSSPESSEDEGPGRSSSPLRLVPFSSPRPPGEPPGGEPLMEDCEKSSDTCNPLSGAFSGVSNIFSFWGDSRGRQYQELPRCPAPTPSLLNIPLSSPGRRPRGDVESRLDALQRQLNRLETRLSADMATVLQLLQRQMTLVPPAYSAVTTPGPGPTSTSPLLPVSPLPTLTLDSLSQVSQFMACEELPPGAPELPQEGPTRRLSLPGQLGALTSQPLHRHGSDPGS
High affinity 3',5'-cyclic-AMP phosphodiesterase 7A, sequence (Q13946 whole entry, the tested form may be a part): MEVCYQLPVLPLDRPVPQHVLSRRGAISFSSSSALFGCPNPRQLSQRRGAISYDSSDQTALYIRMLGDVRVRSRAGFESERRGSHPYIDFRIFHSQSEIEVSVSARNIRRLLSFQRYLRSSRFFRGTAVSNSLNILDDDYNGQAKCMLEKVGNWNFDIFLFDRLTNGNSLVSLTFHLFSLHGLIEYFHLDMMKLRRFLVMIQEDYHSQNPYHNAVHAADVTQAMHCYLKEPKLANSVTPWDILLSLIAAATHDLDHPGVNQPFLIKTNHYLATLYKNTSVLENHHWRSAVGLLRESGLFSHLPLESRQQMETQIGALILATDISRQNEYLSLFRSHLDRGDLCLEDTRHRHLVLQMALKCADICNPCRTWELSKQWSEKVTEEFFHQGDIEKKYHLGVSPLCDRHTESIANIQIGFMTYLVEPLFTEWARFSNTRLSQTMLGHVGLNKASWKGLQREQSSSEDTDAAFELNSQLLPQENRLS

## COc1c(OCC2CC2)cc2oc3cc4c(c(OCc5ccncc5)c3c(=O)c2c1CC=C(C)C)C=CC(C)(C)O4
[1]
  half-life: 7.42 h
[2]
  IC50: 9.51 nM
[3]
  IC50: 1240 nM
[4]
  IC50: 15 nM
[5]
  IC50: 194 nM
[6]
  Ratio IC50: 2.71
[7]
  Ratio IC50: > 2800
[8]
  Ratio IC50: > 2800
[9]
  Ratio IC50: 55
Cytochrome P450 2B6
  IC50: > 25000 nM
[10]
  Ratio IC50: > 2800
[11]
  IC50: > 40000 nM
Cytochrome P450 1A2
  IC50: > 25000 nM
[12]
  AUC(0-t): 6520 ng·h/mL
[13]
  MRT last: 1.76 h
[14]
  Vd: 0.673 L/kg
Mus musculus [15]
  Activity: Active
Mus musculus [16]
  Activity: Active
Mus musculus [17]
  Activity: Active
Mus musculus [18]
  Activity: Active
Mus musculus [19]
  Activity: Active
